# Data from ChEMBL document CHEMBL1955766, “Structure guided development of novel thymidine mimetics targeting Pseudomonas aeruginosa thymidylate kinase: from hit to lead generation” (J Med Chem, 2012).
# Test system: Mycobacterium tuberculosis variant bovis
# Assay: Antibacterial activity against Mycobacterium bovis
# Assay type: functional
smiles,measurement,value
Cc1cn([C@@H]2C[C@H](O)[C@@H](CNC(=S)Nc3ccc(Cl)c(Cl)c3)O2)c(=O)[nH]c1=O,MIC,25 µg/mL
